By Km is commonly meant the concentration of substrate that gives half-maximal velocity. The term kcat denotes the number of substrate molecules converted per active site and unit of time at saturation.

Read-outs that look alike come from different tables or passages of the source.

Test [1] relates to rAmpC CNE-2 from C. neteri ATCC 33855. In kind it is biochemical. To be noted: for Km: Ki or Km,apparent, 200 µM nitrocefin reporter, 500 nM rAmpC, all standard deviations ≤15%.
For test [2] the test system is unchanged. In kind it is biochemical. To be noted: nitrocefin as substrate; 500 nM rAmpC, pH 7, 30 °C.

`CC1(C)S[C@@H]2[C@H](NC(=O)[C@H](N)c3ccccc3)C(=O)N2[C@H]1C(=O)O` [Ampicillin, ampicillin]: the Km in test [1] amounted to 12 µM.
As to `Cc1nnc(SCC2=C(C(=O)O)N3C(=O)[C@@H](NC(=O)Cn4cnnn4)[C@H]3SC2)s1` [Cefazolin, cefazolin], the Michaelis constant (Km) in test [1] worked out at 100 µM.
For `CO[C@@]1(NC(=O)Cc2cccs2)C(=O)N2C(C(=O)O)=C(COC(N)=O)CS[C@@H]21` [Cefoxitin, cefoxitin], the “Km, fold higher than for CDA-1 from C. davisae” value in test [1] (CNE-2 compared with CDA-1 (ref 13)) amounted to 100 fold. The Km in test [1] worked out at 54 µM.
In the case of `CO/N=C(\C(=O)N[C@@H]1C(=O)N2C(C(=O)O)=C(COC(N)=O)CS[C@H]12)c1ccco1` [Cefuroxime, cefuroxime], the Michaelis constant (Km) in test [1] worked out at 4 µM.
For the compound `CC1=C(C(=O)O)N2C(=O)[C@@H](NC(=O)[C@H](N)c3ccccc3)[C@H]2SC1` [Cephalexin, cephalexin], in test [1], the Km came to 5 µM.
Take `C[C@@H](O)[C@H]1C(=O)N2C(C(=O)O)=C(SCCN=CN)C[C@H]12` [Imipenem, imipenem]: the Km in test [1] is 2 µM; in test [1] (listed as imipenem), ~2 µM.
For `CC1(C)S[C@@H]2[C@H](NC(=O)Cc3ccccc3)C(=O)N2[C@H]1C(=O)O` [Penicillin, penicillin], the Michaelis-Menten constant (Km) in test [1] came out at 11 µM.
For `O=C(Cc1cccs1)N[C@@H]1C(=O)N2C(C(=O)O)=C(/C=C/c3ccc([N+](=O)[O-])cc3[N+](=O)[O-])CS[C@H]12` [nitrocefin], in test [2], the Michaelis-Menten constant (Km) worked out at 133 ± 11 µM and the kcat was determined as 3.13 ± 0.27 s⁻¹.

The values above are taken from article PMC9952435, “Characterization of Two Novel AmpC Beta-Lactamases from the Emerging Opportunistic Pathogen, Cedecea neteri” (Antibiotics, 2023).
